Here are results for 1 compound from patent US20260337187A1, “COMPOUNDS FOR TREATMENT OF INFLAMMATORY PROCESSES” (THORNE LIMITED, priority 2022, published 2026).

Holding throughout (assay type): cell-based
Data set [1] deals with primary human B lymphocytes. The data set can be described thus: B lymphocyte cytokine release (cytokine array). Particulars: CD40L and IL4; FIG. 9. As for the experimental part:
The % reduction compared to the stimulated control is shown; average of 2 experiments.
B lymphocyte cytokine release: Primary human B lymphocytes isolated from fresh buffy coat were stimulated at a cell density of 5×10^5/ml in 1 ml by CD40L and IL4 for 5 days in a 24-well plate, and the levels of 105 cytokines in the cell culture supernatant were measured by the R&D Systems Human XL cytokine antibody array as per manufacturer's instructions. The signals were measured by a fluorescence-based photometric read-out in the Li—COR Odyssey Fluorescent imaging system, and the spots quantified by Fiji software.
To investigate the modulation of B lymphocyte cytokine release by B2, primary human B lymphocytes isolated from fresh buffy coat were stimulated by CD40L and IL4 for […] and the levels of 105 cytokines in the cell culture supernatant were measured by the R&D Systems Human XL cytokine array and a fluorescence-based photometric read-out.

The test system of data set [2] is primary human B cells. The data set can be described thus: B lymphocyte plasmablast development (CD38+/CD19low and CD138+ by FACS). Particulars: 5 days; FIG. 4 (20 and 10 μM). Here is the method:
The effect of two concentrations (from right to left: 20 and 10 μM) of B2 is shown in each plot in comparison to control (far left). Each symbol represents one experiment.
B lymphocyte plasmablast development: For human B lymphocyte plasmablast development, primary human B cells were isolated from buffy coat using the MACSxpress Buffy Coat Pan B Cell Isolation Kit (Miltenyi Biotec) as per manufacturer's instructions. The cells were cultured in RPMI in the presence of human transferrin (20 μg/ml), IL-21 (100 ng/ml), recombinant hCD40L (100 μg/ml), anti-HA (50 μg/ml), at a cell density of 5×10^4 cells/ml. Plasmablast formation after 5 days was measured by FACS using two sets of markers: CD38+/CD19low and CD138+ for two stages of plasmablast development.
To investigate the inhibition of B lymphocyte plasmablast development by B2, primary human B cells, isolated from buffy coat, were cultured in the presence of CD40, IL21, anti-IgM, and plasmablast formation measured by FACS using two sets of markers: CD38+/CD19low (FIG. 4, upper plot) and CD138+(FIG. 4, lower plot) for two stages of plasmablast development.
Background: A flow cytometer gives signals particle by particle.

Another data set concerns primary human mast cells. The data set can be described thus: Mast cell cytokine release (cytokine array). To be noted: 100 μM B2, 24 h, IgE/anti-IgE. Here is the method: FIG. 8 is a plot showing average relative intensity of cytokine levels relative to control showing the modulation of mast cell cytokine release by B2. Average of 3 experiments.
Mast cell cytokine release: Primary human mast cells developed in culture from CD34+ precursors as described above in relation to mast cell degranulation were stimulated at a cell density of 0.8×10^6 cells/ml by 0.12 mg/ml IgE and 0.1 μg/ml anti-IgE in mast cell medium (StemSpan SFEM including 100 ng/ml SCF, 50 ng/ml IL6, 2 & FBS, and 1% Pen/Strep). Simultaneously, the cells were treated with 100 μM B2, and cytokine levels present in the culture supernatants were measured after 24 h. The levels of 105 cytokines were measured by the R&D Systems Human XL cytokine array as per manufacturer's instructions. The signals were measured by a fluorescence-based photometric read-out in the Li—COR Odyssey Fluorescent imaging system, and the spots quantified by Fiji software.
To investigate the modulation of mast cell cytokine release by B2, primary human mast cells were stimulated by IgE/anti-IgE, treated with 100 μM B2, and cytokine levels present in the culture supernatants measured after 24 h. The levels of 105 cytokines were measured by the R&D Systems Human XL cytokine array and a fluorescence-based photometric read-out.

The subject of data set [3] is primary human B cells. The data set can be described thus: B lymphocyte IgE production (frequency of IgE+ B lymphocytes by FACS). As for the experimental part: B2 was applied at 3 different concentrations, from left to right: 50, 20 and 10 μM. Average of >10 experiments is shown.
B lymphocyte IgE production: B lymphocyte IgE production was measured in line with that previously described by Audzevich et al. (2013). Briefly, primary human B cells isolated by the MACSxpress Buffy Coat Pan B Cell Isolation Kit (Miltenyi Biotec) from buffy coat were stimulated for 6 days by recombinant hCD40L (100 μg/ml) and IL-4 (50 ng/ml) at a cell density of 5×10^4 cells/ml. The frequency of IgE+B lymphocytes was determined by FACS at day 6 using anti CD19 and anti IgE antibodies.
To investigate inhibition of B lymphocyte IgE production by B2, the frequency of IgE+B lymphocytes was determined by FACS at day 6 of primary human B cell cultures isolated from fresh buffy coat and stimulated by CD40L and IL4.

Data set [4] has as its system human primary eosinophils. The data set can be described thus: Eosinophil ROS production (PMA triggered, DHR-123, FACS). To be noted: FIG. 7 (100, 50, 25 μM). Here is the method: The effect of 3 different concentrations (from right to left: 100, 50 and 25 μM) of B2 is shown in comparison to control (far left) and ROS triggered control (PMA; second from left); average of 3 experiments.
Eosinophil ROS production: Human primary eosinophils were purified from buffy coat, firstly by density gradient centrifugation on ficoll to isolate total peripheral blood mononuclear cell (PBMC), and then by negative selection using the eosinophil purification kit from Miltenyi Inc. as per manufacturer's instructions. The eosinophils were then resuspended in pre-warmed tissue culture media, which had been left in the incubator overnight to equilibrate, containing 25 μM dihydrorhodamine 123 (DHR-123) at a cell density of 1×10^6 cells/ml. The cells were then stimulated with phorbol 12-myristate 13-actetate (PMA) at a concentration of 1 μM in the presence or absence of B2 or DMSO for control in the incubator for 20 minutes and then immediately put on ice to stop the reaction. Levels of the oxidized DHR in the samples were measured by flow cytometry as described above in relation to neutrophil ROS production.
To investigate inhibition of eosinophil ROS production by B2, human primary eosinophils, isolated from fresh blood samples, were triggered to produce ROS by treatment with PMA, and ROS measured by FACS based on the conversion of dihydrorhodamine 123 to rhodamine 123 (FIG. 7).

Turning to `Cc1onc(-c2ccccc2Cl)c1C(=O)Nc1nc2ccc([N+](=O)[O-])cc2s1` [B2, 3-(2-chlorophenyl)-5-methyl-N-(6-nitrobenzo[d]thiazol-2-yl)isoxazole-4-carboxamide], the “B cell cytokine release profile” value in data set [1] is recorded as “reducing specific pro-inflammatory cytokines”. Moreover, the “human B cell plasmablast development” value with primary human B cells [2] is “inhibition of human B cell plasmablast development”. The “mast cell cytokine release profile” value in the data set on primary human mast cells is on record as “reducing specific pro-inflammatory cytokines”. In addition, the “toxicity in B lymphocyte culture” value in the data set on primary human B cells [3] (50 μM B2, day 6) is reported as “some toxicity was observed”; in the data set on primary human B cells [3] (lower concentrations than 50 μM (20 and 10 μM), day 6), “not observed”. For the same compound, in the data set on primary human B cells [3] (CD40L and IL4, day 6, FIG. 5 (50, 20, 10 μM)), the “IgE production by primary human peripheral blood B lymphocytes” value is reported as “inhibits IgE production”. Also, the “production of reactive oxygen species (ROS) by human primary eosinophils” value in data set [4] is “reduced production”.
